Values joined by “and” are separate entries in the source; they are usually repeats but may differ in a detail not shown here. Equal values may be shown once. Read-outs that look alike come from different tables or passages of the source.
Assays:
UGTs (rat LMs) = conditions: rat LMs (RLM)
[1] = rat bile, after 72 h of administration via gavage (3.5 mg/kg) and injection (0.35 mg/kg)
CYPs [2] = test: in vitro; conditions: human, pH 7.4
[3] = human LMs
IAV = tested on: IAV; design: method as in PMID 32520560; conditions: mice, oral dosing; superior to oseltamivir; cited from earlier work
UGTs (mouse LMs) = conditions: mouse LMs (MLM)
CYPs (human LMs) = conditions: human LMs (HLM)
[4] = Pharmacokinetic profile of PND in rats with or without ibrutinib (UGTs inhibitor) pretreatment; type: in vivo, rat; conditions: for Cmax / Tmax: 3.5 mg/kg; for MRT inf: n = 3, read-out: MRT0-∞
Experimental: Ibrutinib, a broad inhibitor of UGTs, was used to block the metabolism of PND via UGTs. PND and ibrutinib were formulated in PEG 300-water (70%: 30%, v/v) and DMSO-Cremophor EL-water (10%: 30%: 60%, v/v/v), respectively. Rats were pretreated through intraperitoneal (i.p.) injection of ibrutinib (100 mg/kg) or vehicle (three rats per group). After 0.5 h, PND (3.5 mg/kg) were administrated via gavage. Then blood samples were taken into heparinized tubes for separating plasma. Time points included before dosing, at 5, 20 and 45 min and 1.25, 2, 3, 4, 6, 8, 12, 24 and 48 h after dosing. Plasma was separated by centrifuging the blood samples at 3000 rpm for 10 min and then stored at −40 °C until analysis. The plasma samples were analyzed using the reported LC–MS/MS method as described in our previous study.
Figures and statistics were plotted and calculated using GraphPad Prism (version 8.4.3) and Microsoft Excel (version 2019). Metabolic pathways were illustrated with ChemBioDraw Ultra (version 13.0). Pharmacokinetic parameters were estimated using non-compartmental methods (WinNonlin version 2.0, Pharsight Co., Certara, NJ, USA). All pharmacokinetic parameters were given as the mean ± standard deviation. All statistical analyses were performed using SAS (version 9.4; SAS Institute Inc., Cary, NC, USA). A p value < 0.05 was considered statistically significant.

[5] = Metabolite profiling of PND in rat bile, urine, feces and plasma by UHPLC–HRMS; type: in vivo; conditions: feces
Experimental: Rats, three animals in each group, were randomly selected and treated with PND orally (3.5 mg/kg) or intravenously (0.35 mg/kg). Blood samples were collected into heparinized tubes by retro-orbital bleeding via capillary tubes under isoflurane anesthesia at 0.33, 3 and 8 h after oral administration and at 0.25, 4 and 8 h after intravenous injection. Plasma was separated by centrifuging the blood samples at 3000 rpm for 10 min. Rats were individually housed in metabolic cages (Tecniplast, Buguggiate, Italia) for collecting urine and feces samples. Additionally, the bile duct of rats under anesthesia with chloral hydrate (10% w/v) were cannulated with a S2-RBDC cannula (Skillsmodel, Beijing) for collecting bile. Urine and feces as well as bile samples were collected pre-dosing and at the following intervals postdosing: 0–2, 2–4, 4–6, 6–8, 8–10, 10–12 (0–12 for feces sample), 12–24, 24–36, 36–48 and 48–72 h. Bile and urine volume was recorded. Feces samples were freeze-dried, weighed, powered, added with water (9 mL/g) and homogenized. All samples were stored at −40 °C until analysis.
Identification analysis of metabolites in bio-samples was performed as described previously using a Dionex Ultimate 3000 UHPLC system combined with a Q-Exactive Focus Orbitrap mass spectrometer (Thermo Fischer Scientific, MA, USA) fitted with a CORTECS T3 column (2.1 × 150 mm, 2.7 μm; Waters, MA, USA). […]

CYPs (mouse LMs) = conditions: mouse LMs (MLM)
CYPs [6] = test: in vitro; conditions: rat, pH 7.4
[7] = design: method as in PMID 32520560; conditions: cited from earlier work
UGTs (human LMs) = conditions: human LMs (HLM)
CYPs (rat LMs) = conditions: rat LMs (RLM)
[8] = mouse LMs
CYPs [9] = test: in vitro; conditions: mouse, pH 7.4
[10] = rat LMs
[11] = PND i.g 3.5 mg/kg, ibrutinib i.p. 100 mg/kg versus control
[12] = rat, plasma, oral, PND i.g 3.5 mg/kg after i.p. Ibrutinib (100 mg/kg) pretreatment, Mean ± SD, n = 3
[13] = rat, plasma, po, PND i.g 3.5 mg/kg, Control, Mean ± SD, n = 3

Structure (SMILES): CC(=O)c1cc(C)c(O)c(Cc2[nH]c3ccccc3c2Cc2c(O)c(C)cc(C(C)=O)c2O)c1O [PND, Penindolone]
- Clint (UGTs (rat LMs)): 0.030 µL/min
- Km (UGTs (rat LMs)): 46.7 µM
- Vmax (UGTs (rat LMs)): 1.38 nmol/(min×mg Protein)
- Accumulation of PND in bile [1]: 2.68–3.35 % of dosing
- Km (CYPs [2]): 97.7 µM
- PND diminished in LM system in the presence of NADPH ([3]; NADPH, within 60 min, PND 2 µM): Less than 16%
- Prototype drug eliminated in the presence of UDPGA ([3]; UDPGA, PND 2 µM): more than 65%
- Stability in LMs without co-factors ([3]; without NADPH or UDPGA): stable
- Protection against IAV-induced death and weight loss (IAV): protect mice against IAV-induced death and weight loss
- Clint (UGTs (mouse LMs)): 0.198 µL/min
- Km (UGTs (mouse LMs)): 31.6 µM
- Vmax (UGTs (mouse LMs)): 6 nmol/(min×mg Protein) and 6.25 nmol/(min×mg Protein)
- Clint (CYPs (human LMs)): 0.013 µL/min
- Vmax (CYPs (human LMs)): 1.28 nmol/(min×mg Protein)
- CLz ([4]; PND i.g 3.5 mg/kg, Control, Mean ± SD, n = 3): 14.7 ± 3.67 mL/min/kg
- Elevation of Cmax of PND after pretreatment with ibrutinib [4, 11]: 18.78%
- Increase of AUC0–∞ of PND after combination with ibrutinib [4, 11]: 30.56%
- Cmax ([4]; rat, plasma, oral, PND i.g 3.5 mg/kg after i.p. Ibrutinib (100 mg/kg) pretreatment, Mean ± SD, n = 3, read-out: Cmax-1): 272 ± 36.9 ng/mL
- Tmax ([4]; rat, plasma, oral, PND i.g 3.5 mg/kg after i.p. Ibrutinib (100 mg/kg) pretreatment, Mean ± SD, n = 3, read-out: Tmax-1): 0.47 ± 0.24 h
- AUC(0-inf) [4, 12]: 5450 ± 2690 ng·h/mL
- Vd [4, 12]: 15.6 ± 6.42 L/kg
- half-life [4, 12]: 15.8 ± 9.82 h
- clearance ([4]; rat, plasma, oral, PND i.g 3.5 mg/kg after i.p. Ibrutinib (100 mg/kg) pretreatment, Mean ± SD, n = 3, read-out: CLz (converted)): 13.5 mL/min/kg
- MRT inf ([4]; rat, plasma, oral, PND i.g 3.5 mg/kg after i.p. Ibrutinib (100 mg/kg) pretreatment, Mean ± SD): 23.9 ± 12.7 h
- Cmax ([4]; rat, plasma, po, PND i.g 3.5 mg/kg, Control, Mean ± SD, n = 3, read-out: Cmax-1): 229 ± 128 ng/mL
- Cmax ([4]; rat, plasma, po, PND i.g 3.5 mg/kg, Control, Mean ± SD, n = 3, read-out: Cmax-2): 197 ± 46.8 ng/mL
- Tmax ([4]; rat, plasma, po, PND i.g 3.5 mg/kg, Control, Mean ± SD, n = 3, read-out: Tmax-1): 0.61 ± 0.24 h
- Tmax ([4]; rat, plasma, po, PND i.g 3.5 mg/kg, Control, Mean ± SD, n = 3, read-out: Tmax-2): 6 h
- AUC(0-inf) [4, 13]: 4180 ± 1190 ng·h/mL
- half-life [4, 13]: 4.87 ± 0.3 h
- MRT inf ([4]; rat, plasma, po, PND i.g 3.5 mg/kg, Control, Mean ± SD): 12.8 ± 0.22 h
- Detection of PND (M0) in bio-samples [5]: detected in all bio-samples
- Clint (CYPs (mouse LMs)): 0.069 µL/min
- Vmax (CYPs (mouse LMs)): 1.11 nmol/(min×mg Protein)
- Km (CYPs [6]): 15.2 µM
- Bioavailability [7]: low
- Clint (UGTs (human LMs)): 0.089 µL/min
- Km (UGTs (human LMs)): 23.4 µM
- Vmax (UGTs (human LMs)): 2.08 nmol/(min×mg Protein)
- Clint (CYPs (rat LMs)): 0.073 µL/min
- Vmax (CYPs (rat LMs)): 1.11 nmol/(min×mg Protein)
- PND metabolized in LMs in the presence of NADPH ([8]; NADPH, within 1 h, PND 2 µM): ~89%
- Prototype drug eliminated in the presence of UDPGA ([8]; UDPGA, PND 2 µM): more than 65%
- Stability in LMs without co-factors ([8]; without NADPH or UDPGA): stable
- Km (CYPs [9]): 16.1 µM
- PND metabolized in LMs in the presence of NADPH ([10]; NADPH, within 1 h, PND 2 µM): Approximately 96%
- Prototype drug eliminated in the presence of UDPGA ([10]; UDPGA, PND 2 µM): more than 65%
- Stability in LMs without co-factors ([10]; without NADPH or UDPGA): stable
